The values that follow come from patent US12581252B2, “Substituted pyrrolo[3,4-b]pyridines as PI3K-α inhibitors” (Relay Therapeutics, Inc., priority 2020, dated 2026).

For the assay, the target named is H1047R PIK3CA enzyme (Homo sapiens, UniProt P42336, H1047R). The assay is described as follows: ADP-Glo Biochemical PIK3CA Kinase Assay. For orientation: In ADP-Glo the light output rises with the ADP produced.
Chain of H1047R PIK3CA enzyme (P42336 whole entry H1047R): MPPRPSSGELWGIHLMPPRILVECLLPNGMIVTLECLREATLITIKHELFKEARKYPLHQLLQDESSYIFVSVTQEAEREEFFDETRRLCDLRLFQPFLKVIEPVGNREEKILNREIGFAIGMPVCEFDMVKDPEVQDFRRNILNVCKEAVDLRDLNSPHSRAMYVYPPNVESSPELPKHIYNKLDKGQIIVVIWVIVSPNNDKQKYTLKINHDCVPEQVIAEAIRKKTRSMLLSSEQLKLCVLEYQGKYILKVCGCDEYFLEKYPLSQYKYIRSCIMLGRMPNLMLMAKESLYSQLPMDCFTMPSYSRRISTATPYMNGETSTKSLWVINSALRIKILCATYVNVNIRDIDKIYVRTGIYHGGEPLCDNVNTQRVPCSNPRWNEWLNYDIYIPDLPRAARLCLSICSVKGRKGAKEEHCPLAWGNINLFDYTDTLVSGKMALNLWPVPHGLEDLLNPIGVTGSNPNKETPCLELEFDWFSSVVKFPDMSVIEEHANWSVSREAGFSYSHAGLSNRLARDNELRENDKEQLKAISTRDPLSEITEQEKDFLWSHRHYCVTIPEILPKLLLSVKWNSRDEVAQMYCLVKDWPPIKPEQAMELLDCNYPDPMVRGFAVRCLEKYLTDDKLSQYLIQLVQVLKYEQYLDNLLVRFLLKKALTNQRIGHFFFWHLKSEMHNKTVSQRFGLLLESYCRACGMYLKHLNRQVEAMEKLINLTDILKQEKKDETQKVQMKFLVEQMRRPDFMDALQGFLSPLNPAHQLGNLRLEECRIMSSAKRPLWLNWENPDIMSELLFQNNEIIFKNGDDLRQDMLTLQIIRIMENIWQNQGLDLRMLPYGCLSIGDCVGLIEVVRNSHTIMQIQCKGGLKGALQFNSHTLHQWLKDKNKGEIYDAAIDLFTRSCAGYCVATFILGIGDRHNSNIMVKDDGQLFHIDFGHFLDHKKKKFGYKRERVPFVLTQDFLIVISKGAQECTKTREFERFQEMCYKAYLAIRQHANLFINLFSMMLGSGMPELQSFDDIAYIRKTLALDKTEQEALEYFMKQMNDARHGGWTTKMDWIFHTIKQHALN
Chain of H1047R PIK3CA enzyme (P27986 whole entry partner): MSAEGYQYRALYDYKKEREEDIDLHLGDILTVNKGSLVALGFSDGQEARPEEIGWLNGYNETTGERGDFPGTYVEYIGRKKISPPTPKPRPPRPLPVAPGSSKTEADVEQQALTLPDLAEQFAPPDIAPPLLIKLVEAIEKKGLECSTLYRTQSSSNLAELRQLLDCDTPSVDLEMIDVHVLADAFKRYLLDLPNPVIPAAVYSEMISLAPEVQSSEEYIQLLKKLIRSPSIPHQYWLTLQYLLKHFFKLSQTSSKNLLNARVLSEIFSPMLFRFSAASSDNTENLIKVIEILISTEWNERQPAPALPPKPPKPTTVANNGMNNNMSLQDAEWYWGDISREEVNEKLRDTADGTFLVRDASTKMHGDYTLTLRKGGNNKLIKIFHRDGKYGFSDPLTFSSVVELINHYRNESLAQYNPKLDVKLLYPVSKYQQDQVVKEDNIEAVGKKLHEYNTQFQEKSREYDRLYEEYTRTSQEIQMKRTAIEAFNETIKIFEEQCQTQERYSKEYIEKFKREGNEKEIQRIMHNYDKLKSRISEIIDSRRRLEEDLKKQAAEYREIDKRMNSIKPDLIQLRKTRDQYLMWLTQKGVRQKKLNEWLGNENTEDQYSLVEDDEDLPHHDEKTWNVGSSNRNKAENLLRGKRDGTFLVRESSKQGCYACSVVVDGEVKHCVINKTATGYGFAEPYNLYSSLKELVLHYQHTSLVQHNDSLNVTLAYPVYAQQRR
As to `N#CCc1cc(NC(=O)N2C[C@@H](O)c3cc(F)ccc32)c2c(c1)C(=O)N[C@@H]2c1cc(F)ccc1Cl` (single isomer, unassigned) [Compound I-2538], the IC50 is ≤ 0.1 µM.
Take `N#CCc1cc(NC(=O)N2C[C@H](O)c3cc(F)ccc32)c2c(c1)C(=O)N[C@H]2c1cc(F)ccc1Cl` (single isomer, unassigned) [Compound I-2539]: the IC50 lay in the range of 1 to 10 µM.
Next, `COCc1cc(NC(=O)N2C[C@](O)(C(F)(F)F)c3cc(F)ccc32)c2c(c1)C(=O)N[C@@H]2c1cc(F)ccc1Cl` (single isomer, unassigned) [Compound I-2542]: 1 to 10 µM; `COCc1cc(NC(=O)N2C[C@@](O)(C(F)(F)F)c3cc(F)ccc32)c2c(c1)C(=O)N[C@H]2c1cc(F)ccc1Cl` (single isomer, unassigned) [Compound I-2543]: 1 to 10 µM.
For `O=C1N[C@H](c2cc(F)ccc2Cl)c2c(NC(=O)N3C[C@](O)(C(F)(F)F)c4cc(F)ccc43)cc(-n3ccnn3)cc21` (single isomer, unassigned) [Compound I-2548], the half-inhibitory concentration (IC50) lay within 1 to 10 µM.
On to `O=C1N[C@@H](c2cc(F)ccc2Cl)c2c(NC(=O)N3C[C@@](O)(C(F)(F)F)c4cc(F)ccc43)cc(-n3ccnn3)cc21` (single isomer, unassigned) [Compound I-2549], for which the 50% inhibitory concentration (IC50) lay within 0.1 to 0.5 µM.
As to `O=C1N[C@@H](c2cc(F)ccc2Cl)c2c(NC(=O)N3C[C@](O)(C(F)(F)F)c4cc(F)ccc43)cc(-n3ccnn3)cc21` (single isomer, unassigned) [Compound I-2550], the concentration for half-maximal inhibition (IC50) fell in the range of 1 to 10 µM.
Compound `N#CC1(COc2cc(NC(=O)N3C[C@@H](O)c4cc(F)ccc43)c3c(c2)C(=O)N[C@H]3c2cc(F)ccc2Cl)CC1` (single isomer, unassigned) [Compound I-2551] showed an IC50 of 1 to 10 µM.
Next, `N#CC1(COc2cc(NC(=O)N3C[C@H](O)c4cc(F)ccc43)c3c(c2)C(=O)N[C@H]3c2cc(F)ccc2Cl)CC1` (single isomer, unassigned) [Compound I-2553]: 0.1 to 0.5 µM; `N#CC1(COc2cc(NC(=O)N3C[C@H](O)c4cc(F)ccc43)c3c(c2)C(=O)N[C@@H]3c2cc(F)ccc2Cl)CC1` (single isomer, unassigned) [Compound I-2554]: 0.1 to 0.5 µM; `O=C1N[C@@H](c2cc(F)ccc2Cl)c2c(NC(=O)N3C[C@@](O)(C(F)F)c4cc(F)ccc43)cccc21` (single isomer, unassigned) [Compound I-2555]: 1 to 10 µM.
The compound `O=C1N[C@H](c2cc(F)ccc2Cl)c2c(NC(=O)N3C[C@@](O)(C(F)F)c4cc(F)ccc43)cccc21` (single isomer, unassigned) [Compound I-2556] gave a concentration for half-maximal inhibition (IC50) of 0.5 to 1 µM.
Next, `O=C1N[C@@H](c2cc(F)ccc2Cl)c2c(NC(=O)N3C[C@](O)(C(F)F)c4cc(F)ccc43)cccc21` (single isomer, unassigned) [Compound I-2557]: 1 to 10 µM.
`N#Cc1cc(NC(=O)N2C[C@@](O)(C(F)(F)F)c3cc(F)ccc32)c2c(c1)C(=O)N[C@H]2c1cc(F)ccc1Cl` (single isomer, unassigned) [Compound I-2559] returned an IC50 of 1 to 10 µM.
With `N#Cc1cc(NC(=O)N2C[C@](O)(C(F)(F)F)c3cc(F)ccc32)c2c(c1)C(=O)N[C@H]2c1cc(F)ccc1Cl` (single isomer, unassigned) [Compound I-2561], the IC50 is 1 to 10 µM.
In the case of `N#Cc1cc(NC(=O)N2C[C@@](O)(C(F)(F)F)c3ccccc32)c2c(c1)C(=O)N[C@H]2c1cc(F)ccc1Cl` (single isomer, unassigned) [Compound I-2563], the IC50 was 1 to 10 µM.
Regarding `N#Cc1cc(NC(=O)N2C[C@](O)(C(F)(F)F)c3ccccc32)c2c(c1)C(=O)N[C@H]2c1cc(F)ccc1Cl` (single isomer, unassigned) [Compound I-2565], the half-inhibitory concentration (IC50) was in the range of 1 to 10 µM.
The result for `O=C1N[C@H](c2cc(F)ccc2Cl)c2c(NC(=O)N3C[C@](O)(C(F)(F)F)c4cc(F)ccc43)cc(-n3nccn3)cc21` (single isomer, unassigned) [Compound I-2570] reads 1 to 10 µM.
As for `O=C1N[C@@H](c2cc(F)ccc2Cl)c2c(NC(=O)N3C[C@@](O)(C(F)(F)F)c4cc(F)ccc43)cc(-n3nccn3)cc21` (single isomer, unassigned) [Compound I-2571], the IC50 was in the range of 1 to 10 µM.
In turn, `CC(=O)Nc1cc(NC(=O)N2C[C@](O)(C(F)(F)F)c3cc(F)ccc32)c2c(c1)C(=O)N[C@H]2c1cc(F)ccc1Cl` (single isomer, unassigned) [Compound I-2574] gave an IC50 of 0.1 to 0.5 µM.
For the compound `CC(=O)Nc1cc(NC(=O)N2C[C@@](O)(C(F)(F)F)c3cc(F)ccc32)c2c(c1)C(=O)N[C@@H]2c1cc(F)ccc1Cl` (single isomer, unassigned) [Compound I-2575], the IC50 lay within 1 to 10 µM.
Compound `O=C1N[C@H](c2cc(F)ccc2Cl)c2c(NC(=O)N3C[C@@](O)(C(F)(F)F)c4cc(F)ccc43)cc(C(F)F)cc21` (single isomer, unassigned) [Compound I-2577] returned an IC50 of 1 to 10 µM.
The result for `O=C1N[C@@H](c2cc(F)ccc2Cl)c2c(NC(=O)N3C[C@@](O)(C(F)(F)F)c4cc(F)ccc43)cc(C(F)F)cc21` (single isomer, unassigned) [Compound I-2578] reads 1 to 10 µM; that for `NCCc1cc(NC(=O)N2C[C@](O)(C(F)(F)F)c3cc(F)ccc32)c2c(c1)C(=O)N[C@H]2c1cc(F)ccc1Cl` (single isomer, unassigned) [Compound I-2582], 0.1 to 0.5 µM; that for `NCCc1cc(NC(=O)N2C[C@@](O)(C(F)(F)F)c3cc(F)ccc32)c2c(c1)C(=O)N[C@@H]2c1cc(F)ccc1Cl` (single isomer, unassigned) [Compound I-2583], 1 to 10 µM.
Compound `O=C1N[C@@H](c2cc(F)ccc2Cl)c2c(NC(=O)N3C[C@@](O)(C(F)F)c4cc(F)ccc43)cc(Cl)cc21` (single isomer, unassigned) [Compound I-2588] yielded a concentration for half-maximal inhibition (IC50) of 1 to 10 µM.
Next, `O=C1N[C@@H](c2cc(F)ccc2Cl)c2c(NC(=O)N3C[C@@](O)(C(F)F)c4cc(F)ccc43)cc(Cl)cc21` (single isomer, unassigned) [Compound I-2589]: 1 to 10 µM.
With `O=C1N[C@@H](c2cc(F)ccc2Cl)c2c(NC(=O)N3C[C@](O)(C(F)F)c4cc(F)ccc43)cc(Cl)cc21` (single isomer, unassigned) [Compound I-2590], the IC50 was in the range of 1 to 10 µM.
Compound `[2H]C1([2H])N(C(=O)Nc2cccc3c2[C@@H](c2cc(F)ccc2Cl)NC3=O)c2ccc(F)cc2[C@]1(O)C(F)(F)F` (single isomer, unassigned) [Compound I-2592] gave an IC50 of 1 to 10 µM.
In turn, `[2H]C1([2H])N(C(=O)Nc2cccc3c2[C@H](c2cc(F)ccc2Cl)NC3=O)c2ccc(F)cc2[C@@]1(O)C(F)(F)F` (single isomer, unassigned) [Compound I-2593] registered an IC50 of 1 to 10 µM.
Next, `[2H]C1([2H])N(C(=O)Nc2cccc3c2[C@@H](c2cc(F)ccc2Cl)NC3=O)c2ccc(F)cc2[C@@]1(O)C(F)(F)F` (single isomer, unassigned) [Compound I-2594]: 1 to 10 µM; `N#CCc1cc(NC(=O)N2C[C@](O)(C(F)F)c3cc(F)ccc32)c2c(c1)C(=O)N[C@@H]2c1cc(F)ccc1Cl` (single isomer, unassigned) [Compound I-2598]: 1 to 10 µM; `N#CCc1cc(NC(=O)N2C[C@@](O)(C(F)F)c3cc(F)ccc32)c2c(c1)C(=O)N[C@H]2c1cc(F)ccc1Cl` (single isomer, unassigned) [Compound I-2599]: 0.1 to 0.5 µM.
Next, `N#CCc1cc(NC(=O)N2C[C@@](O)(C(F)F)c3cc(F)ccc32)c2c(c1)C(=O)N[C@@H]2c1cc(F)ccc1Cl` (single isomer, unassigned) [Compound I-2600]: 0.5 to 1 µM; `N#CCc1cc(NC(=O)N2C[C@@](O)(C(F)(F)F)c3ccccc32)c2c(c1)C(=O)N[C@H]2c1cc(F)ccc1Cl` (single isomer, unassigned) [Compound I-2602]: 1 to 10 µM.
Next, `N#CCc1cc(NC(=O)N2C[C@@](O)(C(F)(F)F)c3ccccc32)c2c(c1)C(=O)N[C@@H]2c1cc(F)ccc1Cl` (single isomer, unassigned) [Compound I-2603]: 1 to 10 µM.
Consider `N#CCc1cc(NC(=O)N2C[C@](O)(C(F)(F)F)c3ccccc32)c2c(c1)C(=O)N[C@H]2c1cc(F)ccc1Cl` (single isomer, unassigned) [Compound I-2604], for which the IC50 lay within 0.5 to 1 µM.
Compound `CNc1cc(NC(=O)N2C[C@@](O)(C(F)(F)F)c3cc(F)ccc32)c2c(c1C#N)C(=O)N[C@H]2c1cc(F)ccc1Cl` (single isomer, unassigned) [Compound I-2606] yielded an IC50 of 1 to 10 µM.
Turning to `CNc1cc(NC(=O)N2C[C@@](O)(C(F)(F)F)c3cc(F)ccc32)c2c(c1C#N)C(=O)N[C@@H]2c1cc(F)ccc1Cl` (single isomer, unassigned) [Compound I-2607], the IC50 lay in the range of 1 to 10 µM.
Next, `CNc1cc(NC(=O)N2C[C@](O)(C(F)(F)F)c3cc(F)ccc32)c2c(c1C#N)C(=O)N[C@H]2c1cc(F)ccc1Cl` (single isomer, unassigned) [Compound I-2608]: 1 to 10 µM.
In the case of `CC(C)(C#N)n1cc(-c2cc(NC(=O)N3C[C@](O)(C(F)(F)F)c4cc(F)ccc43)c3c(c2)C(=O)N[C@@H]3c2cc(F)ccc2Cl)cn1` (single isomer, unassigned) [Compound I-2610], the 50% inhibitory concentration (IC50) was in the range of 1 to 10 µM.
Compound `CC(C)(C#N)n1cc(-c2cc(NC(=O)N3C[C@@](O)(C(F)(F)F)c4cc(F)ccc43)c3c(c2)C(=O)N[C@H]3c2cc(F)ccc2Cl)cn1` (single isomer, unassigned) [Compound I-2612] yielded an IC50 of 1 to 10 µM.
The result for `N#CCc1ccc(NC(=O)N2C[C@](O)(C(F)(F)F)c3cc(F)ccc32)c2c1C(=O)N[C@@H]2c1cc(F)ccc1Cl` (single isomer, unassigned) [Compound I-2615] reads 1 to 10 µM; that for `N#CCc1ccc(NC(=O)N2C[C@@](O)(C(F)(F)F)c3cc(F)ccc32)c2c1C(=O)N[C@H]2c1cc(F)ccc1Cl` (single isomer, unassigned) [Compound I-2616], 1 to 10 µM; that for `N#CCc1ccc(NC(=O)N2C[C@@](O)(C(F)(F)F)c3cc(F)ccc32)c2c1C(=O)N[C@@H]2c1cc(F)ccc1Cl` (single isomer, unassigned) [Compound I-2617], 1 to 10 µM.

The IC50 is the concentration that gives 50% inhibition. A higher IC50 goes with weaker potency in that assay.
